The values below come from publication PMC9296478, “Discovery of a lectin domain that regulates enzyme activity in mouse N-acetylglucosaminyltransferase-IVa (MGAT4A)” (Communications Biology, 2022).

The target in one experiment is T1, GnT-IVa lectin domain (Mus musculus, UniProt Q812G0).
T1 construct: gene Mgat4a; C-terminal lectin domain, residues 382-526, expressed in E. coli BL21(DE3) RIPL as GST fusion (pGEX6P-1), GST cleaved by PreScission protease; 15N-labelled for NMR
T1 sequence (Q812G0 382-526 isoform Q812G0-2): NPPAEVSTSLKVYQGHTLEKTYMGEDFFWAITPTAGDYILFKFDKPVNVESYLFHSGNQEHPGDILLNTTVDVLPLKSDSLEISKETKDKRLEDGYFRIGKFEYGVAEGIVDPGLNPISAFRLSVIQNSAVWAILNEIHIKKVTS
Nature of the experiment: 1H-15N HSQC NMR titration (peak A). It counts as binding. As to conditions: 20 mM sodium phosphate pH 6.0, 298 K, 0.4 mM protein; read-out: dissociation constant.

The target in experiment [1] is T2, soluble wild-type GnT-IVa enzyme (Mus musculus, UniProt Q812G0).
T2 construct: gene Mgat4a; luminal region, residues 60-526 (catalytic plus lectin domain), N-terminal His tag, secreted from COS7 cells (pcDNA-IH), Ni2+ column purified from medium
T2 sequence (Q812G0 60-526 isoform Q812G0-2 D445A): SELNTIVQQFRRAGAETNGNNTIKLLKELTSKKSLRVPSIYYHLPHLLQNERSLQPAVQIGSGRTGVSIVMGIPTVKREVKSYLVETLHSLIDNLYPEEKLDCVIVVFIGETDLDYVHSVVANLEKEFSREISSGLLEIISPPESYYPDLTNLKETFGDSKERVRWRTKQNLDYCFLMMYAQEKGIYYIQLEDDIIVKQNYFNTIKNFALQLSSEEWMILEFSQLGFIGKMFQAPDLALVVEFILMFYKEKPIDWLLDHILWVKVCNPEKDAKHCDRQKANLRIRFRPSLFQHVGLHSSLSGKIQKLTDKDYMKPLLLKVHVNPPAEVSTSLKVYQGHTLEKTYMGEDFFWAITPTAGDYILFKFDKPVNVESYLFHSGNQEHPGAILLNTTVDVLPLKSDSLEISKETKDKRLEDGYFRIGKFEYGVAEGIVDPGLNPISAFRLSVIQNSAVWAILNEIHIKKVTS
Kind of experiment: HPLC assay of PA-labelled product. The settings on record: 10 mM MnCl2, 125 mM MES pH 6.25, 200 mM GlcNAc, 37 °C. It counts as biochemical.

For the molecule `CC(=O)N[C@H]1C(O)O[C@H](CO)[C@@H](O)[C@@H]1O` (stereo partly shown) [GlcNAc], the Kd at GnT-IVa lectin domain stood at 3100 µM.
For `CC(=O)N[C@H]1[C@H](O[C@@H]2C(O)O[C@H](CO)[C@@H](O)[C@@H]2O)O[C@H](CO)[C@@H](O)[C@@H]1O` (stereo partly shown) [GlcNAcβ1-2Man], the Kd on GnT-IVa lectin domain turned out to be 320 µM.
With `CC(=O)N[C@H]1[C@H](O[C@@H]([C@H](O)[C@H](CNc2ccccn2)NC(C)=O)[C@H](O)CO)O[C@H](CO)[C@@H](O[C@@H]2O[C@H](CO[C@H]3O[C@H](CO)[C@@H](O)[C@H](O)[C@@H]3O[C@@H]3O[C@H](CO)[C@@H](O)[C@H](O)[C@H]3NC(C)=O)[C@@H](O)[C@H](O[C@H]3O[C@H](CO)[C@@H](O)[C@H](O)[C@@H]3O[C@@H]3O[C@H](CO)[C@@H](O)[C@H](O)[C@H]3NC(C)=O)[C@@H]2O)[C@@H]1O` [GnGnbi-PA], the Km in experiment [1] (20 mM UDP-GlcNAc, 32-640 μM acceptor, labelled compound) stood at 1250 µM.
Turning to `CC(=O)N[C@H]1[C@@H](OP(=O)(O)OP(=O)(O)OC[C@H]2O[C@@H](n3ccc(=O)[nH]c3=O)[C@H](O)[C@@H]2O)O[C@H](CO)[C@@H](O)[C@@H]1O` [UDP-GlcNAc], in experiment [1] (10 μM GnGnbi-PA, 0.625-20 mM UDP-GlcNAc), the Km was determined as 3950 µM.
